According to patent EP1242012B1, “IMPROVED TRANSDERMAL CONTRACEPTIVE DELIVERY SYSTEM AND PROCESS” (priority 1999, dated 2001):

Assays:
[1] = human, in vivo, topical or ocular; cited from earlier work
[2] = human, in vivo, topical or ocular
Excerpt: The total duration of study for each subject participating in this study is 5 months. It consists of one base-line period followed by three treatment periods and one recovery period. Each period is one menstrual cycle of the person subjects.
Subjects attending this 5 month-long study were randomly divided and sequentially admitted into three study groups. Group A, B and C subjects received one piece of 7.5 cm^2, 10.0 cm^2 and 12.5 cm^2 TCDS patch weekly, respectively, for three consecutive weeks I each of the three treatment periods. During the baseline and recovery periods, all the subjects received only the placebo patch of the corresponding size for three consecutive weeks. During the fourth week of each study period, no patch was worn by the subjects in any treatment groups.
According to the blood sampling schedule, a total of 57 blood samples (about 10 ml per sample) were taken from each subject during the 5-month study. During the three treatment cycles, 15 samples were taken through out the 21 days of patch wearing period. At the end of the third treatment cycle, 5 additional blood samples were taken during the 24 hours post patch removal which allows the elimination pharmacokinetics of drugs to be studied. […]
Serum level of levonorgestrel (LNG), ethinyl estradiol (EE) as well as luteinizing hormone (LH), progesterone (P) and estradiol (E2) were analyzed by radio-immunassay methods.

Structure (SMILES): C#C[C@]1(O)CC[C@H]2[C@@H]3CCC4=CC(=O)CC[C@@H]4[C@H]3CC[C@@]21CC [levonorgestrel]
- levels achieved by the system described in the '956 patent [1]: 0.4 ng/mL

Structure (SMILES): C#C[C@]1(O)CC[C@H]2[C@@H]3CCc4cc(O)ccc4[C@H]3CC[C@@]21C [ethinyl estradiol]
- levels achieved by the TCDS formulation of the present invention [2]: 0.035 to 0.075 ng/mL
